Source: PubChem BioAssay AID2060613 (Molecular Pharmacology Branch, DTP, NCI, 2025)

System: 233499-124-R-J3-PDC complex spheroid viability
Assay: Anticancer human tumor 233499-124-R-J3-PDC patient-derived colon adenocarcinoma cell line growth inhibition [CLK]
Settings: for IC50: curve of first compound; for viability, T/C: stronger effect = lower value; active means viability on the fitted dose curve at most 10% of control; inactive means the rest
Method in brief: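 Multi-cell-type spheroids combined patient-derived tumor cells with HUVEC endothelial cells and human mesenchymal stem cells. Paired agents were dosed in half-log steps down from about clinical Cmax, or from 10 microM where Cmax was unknown.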
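Further: spheroids exposed to the drug combinations for seven days.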
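Wherever viability, T/C is given: percent viability relative to DMSO vehicle control wells taken as 100%.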

C=CC(=O)Nc1cc(Nc2nccc(-c3cn(C)c4ccccc34)n2)c(OC)cc1N(C)CCN(C)C + CNC(=O)c1ccc(Nc2nc(OC3CCCC3)c3c(-c4ccc5nc(C)oc5c4)c[nH]c3n2)c(OC)c1
inactive: viability, T/C (second compound 0.0316 µM, first compound 0.000949 µM) 70.1% | viability, T/C (second compound 0.0316 µM, first compound 0.003 µM) 97% | viability, T/C (second compound 0.0316 µM, first compound 0.00949 µM) 76.7% | viability, T/C (second compound 0.0316 µM, first compound 0.03 µM) 91% | viability, T/C (second compound 0.0316 µM, first compound 0.0949 µM) 94.9% | viability, T/C (second compound 0.0316 µM, first compound 0.3 µM) 71.8% | viability, T/C (second compound 0.1 µM, first compound 0.000949 µM) 69.8% | viability, T/C (second compound 0.1 µM, first compound 0.003 µM) 80.8% | viability, T/C (second compound 0.1 µM, first compound 0.00949 µM) 77.9% | viability, T/C (second compound 0.1 µM, first compound 0.03 µM) 74.8% | viability, T/C (second compound 0.1 µM, first compound 0.0949 µM) 81.5% | viability, T/C (second compound 0.1 µM, first compound 0.3 µM) 77.1% | viability, T/C (second compound 0.316 µM, first compound 0.000949 µM) 70% | viability, T/C (second compound 0.316 µM, first compound 0.003 µM) 86% | viability, T/C (second compound 0.316 µM, first compound 0.00949 µM) 69.2% | viability, T/C (second compound 0.316 µM, first compound 0.03 µM) 68.4% | viability, T/C (second compound 0.316 µM, first compound 0.0949 µM) 76.6% | viability, T/C (second compound 0.316 µM, first compound 0.3 µM) 78.3% | viability, T/C (second compound 1 µM, first compound 0.000949 µM) 78.7% | viability, T/C (second compound 1 µM, first compound 0.003 µM) 76.2% | viability, T/C (second compound 1 µM, first compound 0.00949 µM) 75.3% | viability, T/C (second compound 1 µM, first compound 0.03 µM) 82.5% | viability, T/C (second compound 1 µM, first compound 0.0949 µM) 69.9% | viability, T/C (second compound 1 µM, first compound 0.3 µM) 73.3% | viability, T/C (second compound 3.16 µM, first compound 0.000949 µM) 55.5% | viability, T/C (second compound 3.16 µM, first compound 0.003 µM) 71.3% | viability, T/C (second compound 3.16 µM, first compound 0.00949 µM) 81.4% | viability, T/C (second compound 3.16 µM, first compound 0.03 µM) 65.8% | viability, T/C (second compound 3.16 µM, first compound 0.0949 µM) 79.7% | viability, T/C (second compound 3.16 µM, first compound 0.3 µM) 67.7% | viability, T/C (second compound 10 µM, first compound 0.000949 µM) 73.5% | viability, T/C (second compound 10 µM, first compound 0.003 µM) 62.2% | viability, T/C (second compound 10 µM, first compound 0.00949 µM) 76.9% | viability, T/C (second compound 10 µM, first compound 0.03 µM) 74.8% | viability, T/C (second compound 10 µM, first compound 0.0949 µM) 69.6% | viability, T/C (second compound 10 µM, first compound 0.3 µM) 61.7%
> 300 nM: IC50 (second compound 0.0316 µM) | IC50 (second compound 0.1 µM) | IC50 (second compound 0.316 µM) | IC50 (second compound 1 µM) | IC50 (second compound 3.16 µM) | IC50 (second compound 10 µM)

C=C(F)C(=O)N1CCN(c2nc(OCC3CCCN3C)nc3c2CCN(c2cccc4cccc(Cl)c24)C3)CC1CC#N (centres undefined) + CN1CCN(c2cc(C(=O)Nc3cc4cc(-c5cnn(C)c5)ccc4cn3)ccn2)CC1
active: viability, T/C (second compound 1 µM, first compound 0.0316 µM) 1.94% | viability, T/C (second compound 1 µM, first compound 0.1 µM) 3.93% | viability, T/C (second compound 1 µM, first compound 0.316 µM) 4.58% | viability, T/C (second compound 1 µM, first compound 1 µM) 0.73% | viability, T/C (second compound 1 µM, first compound 3.16 µM) 5.08% | viability, T/C (second compound 1 µM, first compound 10 µM) 0.83% | viability, T/C (second compound 3.16 µM, first compound 0.0316 µM) 0.56% | viability, T/C (second compound 3.16 µM, first compound 0.1 µM) 0.88% | viability, T/C (second compound 3.16 µM, first compound 0.316 µM) 0.69% | viability, T/C (second compound 3.16 µM, first compound 1 µM) 0.56% | viability, T/C (second compound 3.16 µM, first compound 3.16 µM) 0.42% | viability, T/C (second compound 3.16 µM, first compound 10 µM) 0.12% | viability, T/C (second compound 10 µM, first compound 0.0316 µM) 0.42% | viability, T/C (second compound 10 µM, first compound 0.1 µM) 0.74% | viability, T/C (second compound 10 µM, first compound 0.316 µM) 0.44% | viability, T/C (second compound 10 µM, first compound 1 µM) 0.95% | viability, T/C (second compound 10 µM, first compound 3.16 µM) 0.32% | viability, T/C (second compound 10 µM, first compound 10 µM) 0.72%
< 31.6 nM: IC50 (second compound 1 µM) | IC50 (second compound 3.16 µM) | IC50 (second compound 10 µM)
inactive: viability, T/C (second compound 0.0316 µM, first compound 0.0316 µM) 95.2% | viability, T/C (second compound 0.0316 µM, first compound 0.1 µM) 104% | viability, T/C (second compound 0.0316 µM, first compound 0.316 µM) 91.5% | viability, T/C (second compound 0.0316 µM, first compound 1 µM) 100% | viability, T/C (second compound 0.0316 µM, first compound 3.16 µM) 94.1% | viability, T/C (second compound 0.0316 µM, first compound 10 µM) 84% | viability, T/C (second compound 0.1 µM, first compound 0.0316 µM) 99.6% | viability, T/C (second compound 0.1 µM, first compound 0.1 µM) 90.9% | viability, T/C (second compound 0.1 µM, first compound 0.316 µM) 103% | viability, T/C (second compound 0.1 µM, first compound 1 µM) 96% | viability, T/C (second compound 0.1 µM, first compound 3.16 µM) 95.2% | viability, T/C (second compound 0.1 µM, first compound 10 µM) 85.1% | viability, T/C (second compound 0.316 µM, first compound 0.0316 µM) 93.6% | viability, T/C (second compound 0.316 µM, first compound 0.1 µM) 90.3% | viability, T/C (second compound 0.316 µM, first compound 0.316 µM) 82.9% | viability, T/C (second compound 0.316 µM, first compound 1 µM) 98.6% | viability, T/C (second compound 0.316 µM, first compound 3.16 µM) 87.8% | viability, T/C (second compound 0.316 µM, first compound 10 µM) 48.6%
9650 nM: IC50 (second compound 0.316 µM)
> 10000 nM: IC50 (second compound 0.0316 µM) | IC50 (second compound 0.1 µM)
